In patent publication US4578489A (priority 1982, dated 1986):
Like-named read-outs stand apart in the source and are kept apart here.

Key:
[1] = tested on: Cladosporium cladosporioides; test: Minimum inhibitory concentration against fungi, agar incorporation test, strain O; type: cell-based; settings: malt extract/agar
Method: (§1) The invention is carried out using the known agar incorporation test in the following fungi:
(O) Cladosporium cladosporioides
(§2) in a malt extract/agar (Merck). Inhibition is effected by adding sufficient of each of the various compounds to give final concentrations in the agar of 2, 5, 10, 50 and 100 mg/liter. The concentrations (mg/liters) required to inhibit the growth of the fungi (starting from traces of fungi added dropwise) are illustrated in Table 3.

Chlorella vulgaris = test: Action against algae: Chlorella vulgaris; type: cell-based; design: key: --: no growth on the agar, 3 ppm have destroyed the algae in 6 hours; settings: 3 mg/liter; for Growth on the agar (algae-destroying action): 6 hours exposure, 14 days incubation; for Growth in the medium (growth inhibition): 14 days
Method: Cultures of Chlorella vulgaris which had been grown for 14 days in algae nutrient media are diluted in the ratio 1/200 in the algae nutrient medium. Each of the compounds listed in Table 1 is then added in such an amount as to give a final concentration of 3 mg/liter. After incubating for 6 hours, 10 μl of each culture are withdrawn and added dropwise to algae/agar in order to determine the destructive action. After the cultures have incubated for 14 days under illumination (14 hours of light and 10 hours of darkness, alternately), the growth in the algae medium (determination of growth inhibition) and on the algae/agar (determination of algae-destroying action) is assessed visually.

[2] = tested on: Alcaligenes denitrificans; test: Minimum inhibitory concentration against bacteria, strain E; type: cell-based; settings: 24 hours at 30° C.; tested at 100 and 300 mg/liter
Method: (§3) Overnight cultures, grown in Caso peptone bouillon (Merck) of the various strains of bacteria: (A) Proteus vulgaris, (B) Pseudomonas aeruginosa, (C) Enterobacter aerogenes, (D) Serratia marcencens, (E) Alcaligenes denitrificans and (F) Bacillus subtilis are each diluted in a ratio of 1/1000 in saline solution. Sufficient of the suspensions is put into Caso peptone bouillon to dilute the bacteria again in the ratio of 1/1000. Each of the compounds listed in Table 1 is then added in amounts of 100 and 300 mg/liter. After being incubated for 24 hours at 30° C. in a shaking waterbath, the turbidity of the samples is evaluated.

[3] = tested on: mixed culture of bacteria; type: cell-based; design: key: +: growth, no destruction; (+): growth less than that of control (>10 colonies), slight destruction; (-): slight growth (1-10 colonies); -: no growth, destruction
Pseudomonas aeruginosa = test: Minimum inhibitory concentration against bacteria, strain B; type: cell-based; settings: 24 hours at 30° C.; tested at 100 and 300 mg/liter
Method: as §3

Chaetomium globosum = test: Minimum inhibitory concentration against fungi, agar incorporation test, strain S; type: cell-based; settings: malt extract/agar
Method: as §1, §2

Aspergillus phoenicis = test: Minimum inhibitory concentration against fungi, agar incorporation test, strain L; type: cell-based; settings: malt extract/agar
Method: as §1
(L) Aspergillus phoenicis
as §2

Penicillium funiculosum = test: Minimum inhibitory concentration against fungi, agar incorporation test, strain M; type: cell-based; settings: malt extract/agar
Method: as §1
(M) Penicillium funiculosum
as §2

Candida albicans = test: Minimum inhibitory concentration against fungi, agar incorporation test, strain P; type: cell-based; settings: malt extract/agar
Method: as §1, §2

Aureobasidium pullulans = test: Minimum inhibitory concentration against fungi, agar incorporation test, strain R; type: cell-based; settings: malt extract/agar
Method: as §1
(R) Aureobasidium pullulans
as §2

Proteus vulgaris = test: Minimum inhibitory concentration against bacteria, strain A; type: cell-based; settings: 24 hours at 30° C.; tested at 100 and 300 mg/liter
Method: as §3

Artemia salina = test: Action against Artemia salina nauplii; type: in vivo; design: key: 0: no change; 1: slight change; 1-2: animals are attacked; 2: animals are strongly attacked; 2-3: animals are nearly all dead; 3: animals are all dead
Method: The eggs, which are available commercially, are caused to hatch by vigorous aeration. When 2-3 days old, the nauplii are exposed to the products at various concentrations (concentrations tested: 2.5; 1; 0.5 and 0.25 mg/liter) in synthetic seawater, and are observed over a prolonged period of time.

Aspergillus niger = test: Minimum inhibitory concentration against fungi, agar incorporation test, strain K; type: cell-based; settings: malt extract/agar
Method: as §1, §2

Serratia marcencens = test: Minimum inhibitory concentration against bacteria, strain D; type: cell-based; settings: 24 hours at 30° C.; tested at 100 and 300 mg/liter
Method: as §3

Enterobacter aerogenes = test: Minimum inhibitory concentration against bacteria, strain C; type: cell-based; settings: 24 hours at 30° C.; tested at 100 and 300 mg/liter
Method: as §3

Endomyces geotrichum = test: Minimum inhibitory concentration against fungi, agar incorporation test, strain Q; type: cell-based; settings: malt extract/agar
Method: as §1, §2

[4] = tested on: Enteromorpha intestinalis; test: Action against Enteromorpha intestinalis: inhibitory concentration (MIC); type: in vivo; settings: seawater containing biocide for entire test; concentration tested 0.5 mg/liter
Method: (§4) The action against the green alga Enteromorpha, which is the most important in seawter fouling, is investigated in sterile-filtered seawater containing an Erd-Schreiber solution. This solution is composed of a nutrient extract, phosphate and nitrate. The incubation of Enteromorpha intestinalis is carried out in a light thermostat at 18° C. under an alternation of 14 hours of light and 10 hours of darkness.
For determining the inhibitory concentration (MIC), the algae are kept in seawater containing biocide for the entire duration of the test (concentration tested: 0.5 mg/liter).

Bacillus subtilis = test: Minimum inhibitory concentration against bacteria, strain F; type: cell-based; settings: 24 hours at 30° C.; tested at 100 and 300 mg/liter
Method: as §3

Alternaria alternata = test: Minimum inhibitory concentration against fungi, agar incorporation test, strain N; type: cell-based; settings: malt extract/agar
Method: as §1, §2

[5] = tested on: Enteromorpha intestinalis; test: Action against Enteromorpha intestinalis: destruction (minimum killing concentration); type: in vivo; settings: 4 hours in seawater, then 6-8 weeks in fresh seawater
Method: as §4
The algae which have been cultured in this way are exposed to the products under investigation for a short time (4 hours) in seawater. The minimum killing concentration (MKC) is determined by taking the algae out of the seawater containing a specific quantity of algicide, after the treatment time in the latter, washing the algae and investigating growth or mortality after incubation in fresh seawater for a further period of 6-8 weeks.
The minimum killing concentration (MKC) indicates the amount of substance required to cause such damage to the algae within a specific time that they can no longer recover in fresh seawater and die out.

[6] = 5 mg/l, culture diluted 1/1000 in Tyrode
[7] = 5 mg/l, culture diluted 1/10000 in Tyrode
[8] = 10 mg/l, culture diluted 1/1000 in Tyrode
[9] = 10 mg/l, culture diluted 1/10000 in Tyrode
[10] = 30 mg/l, culture diluted 1/1000 in Tyrode
[11] = 30 mg/l, culture diluted 1/10000 in Tyrode
[12] = 60 mg/l, culture diluted 1/1000 in Tyrode
[13] = 60 mg/l, culture diluted 1/10000 in Tyrode
[14] = 100 mg/l, culture diluted 1/1000 in Tyrode
[15] = 100 mg/l, culture diluted 1/10000 in Tyrode

CCCCCCCCCC[N+](C)(C)CCCCCCCCCC.CCC[CH2][Sn-]([Cl])([Cl])([CH2]CCC)[CH2]CCC [Example 4, dimethyl-didecylammonium tributyldichlorostannate-(IV)]
MIC against fungi, strain O [1]: 5 µg/mL | Growth on the agar (algae-destroying action) (Chlorella vulgaris): -- | Growth in the medium (growth inhibition) (Chlorella vulgaris): -- | MIC against bacteria, strain E [2]: 100 µg/mL | Growth (destruction of a mixed culture of bacteria) [3, 6]: + | Growth (destruction of a mixed culture of bacteria) [3, 7]: + | Growth (destruction of a mixed culture of bacteria) [3, 8]: + | Growth (destruction of a mixed culture of bacteria) [3, 9]: (+) (growth less than that of control (>10 colonies), slight destruction) | Growth (destruction of a mixed culture of bacteria) [3, 10]: + | Growth (destruction of a mixed culture of bacteria) [3, 11]: - | Growth (destruction of a mixed culture of bacteria) [3, 12]: (+) (growth less than that of control (>10 colonies), slight destruction) | Growth (destruction of a mixed culture of bacteria) [3, 13]: - | Growth (destruction of a mixed culture of bacteria) [3, 14]: (+) (growth less than that of control (>10 colonies), slight destruction) | Growth (destruction of a mixed culture of bacteria) [3, 15]: - | MIC against bacteria, strain B (Pseudomonas aeruginosa): 100 µg/mL | MIC against fungi, strain S (Chaetomium globosum): 2 µg/mL | MIC against fungi, strain L (Aspergillus phoenicis): 5 µg/mL | MIC against fungi, strain M (Penicillium funiculosum): 5 µg/mL | MIC against fungi, strain P (Candida albicans): 5 µg/mL | MIC against fungi, strain R (Aureobasidium pullulans): 2 µg/mL | MIC against bacteria, strain A (Proteus vulgaris): 100 µg/mL | Action against Artemia salina (Artemia salina; 0,5 mg/l, 6 hours): 1-3 | Action against Artemia salina (Artemia salina; 0,5 mg/l, 24 hours): 2-3 | Action against Artemia salina (Artemia salina; 0,5 mg/l, 48 hours): 3 | Action against Artemia salina (Artemia salina; 0,25 mg/l, 6 hours): 0-1 | Action against Artemia salina (Artemia salina; 0,25 mg/l, 24 hours): 2 | Action against Artemia salina (Artemia salina; 0,25 mg/l, 48 hours): 2 | Action against Artemia salina (Artemia salina; 1 mg/l, 6 hours): 2-3 | Action against Artemia salina (Artemia salina; 1 mg/l, 24 hours): 3 | Action against Artemia salina (Artemia salina; 1 mg/l, 48 hours): 3 | Action against Artemia salina (Artemia salina; 2,5 mg/l, 6 hours): 2-3 | Action against Artemia salina (Artemia salina; 2,5 mg/l, 24 hours): 3 | Action against Artemia salina (Artemia salina; 2,5 mg/l, 48 hours): 3 | MIC against fungi, strain K (Aspergillus niger): 2 µg/mL | MIC against bacteria, strain D (Serratia marcencens): 100 µg/mL | MIC against bacteria, strain C (Enterobacter aerogenes): 100 µg/mL | MIC against fungi, strain Q (Endomyces geotrichum): 5 µg/mL | MIC [4]: 0.5 µg/mL | MIC against bacteria, strain F (Bacillus subtilis): 100 µg/mL | MIC against fungi, strain N (Alternaria alternata): 2 µg/mL | Destruction, 5 mg/liter [5]: yes

CCCCCCCCCCCCCC[N+](CCO)(CCO)Cc1ccccc1.CCC[CH2][Sn-]([Cl])([Cl])([CH2]CCC)[CH2]CCC [Example 24, Di-hydroxyethyl-benzyl-tetradecyl / Tributyldichloro]
MIC against fungi, strain O [1]: 2 µg/mL | Growth on the agar (algae-destroying action) (Chlorella vulgaris): -- | Growth in the medium (growth inhibition) (Chlorella vulgaris): -- | MIC against bacteria, strain E [2]: 100 µg/mL | Growth (destruction of a mixed culture of bacteria) [3, 6]: + | Growth (destruction of a mixed culture of bacteria) [3, 7]: + | Growth (destruction of a mixed culture of bacteria) [3, 8]: + | Growth (destruction of a mixed culture of bacteria) [3, 9]: + | Growth (destruction of a mixed culture of bacteria) [3, 10]: + | Growth (destruction of a mixed culture of bacteria) [3, 11]: + | Growth (destruction of a mixed culture of bacteria) [3, 12]: + | Growth (destruction of a mixed culture of bacteria) [3, 13]: (+) (growth less than that of control (>10 colonies), slight destruction) | Growth (destruction of a mixed culture of bacteria) [3, 14]: + | Growth (destruction of a mixed culture of bacteria) [3, 15]: - | MIC against bacteria, strain B (Pseudomonas aeruginosa): 100 µg/mL | MIC against fungi, strain S (Chaetomium globosum): 2 µg/mL | MIC against fungi, strain L (Aspergillus phoenicis): 5 µg/mL | MIC against fungi, strain M (Penicillium funiculosum): 5 µg/mL | MIC against fungi, strain P (Candida albicans): 5 µg/mL | MIC against fungi, strain R (Aureobasidium pullulans): 2 µg/mL | MIC against bacteria, strain A (Proteus vulgaris): 100 µg/mL | Action against Artemia salina (Artemia salina; 0,5 mg/l, 6 hours): 1-2 | Action against Artemia salina (Artemia salina; 0,5 mg/l, 24 hours): 2-3 | Action against Artemia salina (Artemia salina; 0,5 mg/l, 48 hours): 3 | Action against Artemia salina (Artemia salina; 0,25 mg/l, 6 hours): 0-1 | Action against Artemia salina (Artemia salina; 0,25 mg/l, 24 hours): 2 | Action against Artemia salina (Artemia salina; 0,25 mg/l, 48 hours): 2-3 | Action against Artemia salina (Artemia salina; 1 mg/l, 6 hours): 2 | Action against Artemia salina (Artemia salina; 1 mg/l, 24 hours): 3 | Action against Artemia salina (Artemia salina; 1 mg/l, 48 hours): 3 | Action against Artemia salina (Artemia salina; 2,5 mg/l, 6 hours): 2-3 | Action against Artemia salina (Artemia salina; 2,5 mg/l, 24 hours): 3 | Action against Artemia salina (Artemia salina; 2,5 mg/l, 48 hours): 3 | MIC against fungi, strain K (Aspergillus niger): 5 µg/mL | MIC against bacteria, strain D (Serratia marcencens): 100 µg/mL | MIC against bacteria, strain C (Enterobacter aerogenes): 100 µg/mL | MIC against fungi, strain Q (Endomyces geotrichum): 5 µg/mL | MIC against bacteria, strain F (Bacillus subtilis): 100 µg/mL | MIC against fungi, strain N (Alternaria alternata): 5 µg/mL
